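Each compound was tested at five concentrations against cells in 96-well plates for 48 hours. GI50 is the concentration that inhibits growth by half.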 Calls of active or inactive are those of the source. Rule as the data show it: active = GI50 up to about 1.1 µM and inactive = higher.
Key:
Test in all cases: growth of human tumour cells (NCI), 48 h
A498 = system: A498
HL-60 = system: HL-60
TK-10 = system: TK-10
CCRF-CEM = system: CCRF-CEM
RXF 393 = system: RXF 393
HT-29 = system: HT-29
A549 = system: A549
SF-295 = system: SF-295
OVCAR-4 = system: OVCAR-4
Malme-3M = system: Malme-3M
SK-MEL-2 = system: SK-MEL-2
U-251 = system: U-251
SW-620 = system: SW-620
OVCAR-3 = system: OVCAR-3
SNB-75 = system: SNB-75
CAKI-1 = system: CAKI-1

Measured: GI50

CC(N)CC(=O)O (configuration not stated)
inactive: A498 > 5000 µM | HL-60 > 5000 µM | TK-10 > 5000 µM | CCRF-CEM > 5000 µM | RXF 393 > 5000 µM | HT-29 > 5000 µM | A549 2850 µM | SF-295 > 5000 µM | OVCAR-4 > 5000 µM | Malme-3M > 5000 µM | SK-MEL-2 > 5000 µM | U-251 > 5000 µM | SW-620 > 5000 µM | OVCAR-3 > 5000 µM | SNB-75 > 5000 µM

NC(=S)N/N=C/C(O[C@@H](/C=N/NC(N)=S)CO)n1cnc2c(N)ncnc21 (some centres not stated)
inactive: A498 > 100 µM | HL-60 67 µM | TK-10 > 100 µM | CCRF-CEM 37.2 µM | RXF 393 > 100 µM | HT-29 > 62.5 µM | A549 > 65.3 µM | SF-295 > 100 µM | OVCAR-4 > 100 µM | Malme-3M > 100 µM | CAKI-1 > 100 µM | U-251 > 51.2 µM | SW-620 > 38 µM | OVCAR-3 > 55.3 µM | SNB-75 > 52.4 µM

CC[P+](C)(C)c1ccccc1
inactive: A498 > 100 µM | TK-10 > 100 µM | CCRF-CEM > 100 µM | RXF 393 > 100 µM | HT-29 > 100 µM | A549 > 100 µM | SF-295 > 100 µM | OVCAR-4 99.3 µM | Malme-3M > 100 µM | SK-MEL-2 > 100 µM | CAKI-1 > 100 µM | U-251 > 100 µM | SW-620 > 100 µM | OVCAR-3 > 100 µM | SNB-75 > 100 µM

COc1cc([C@@H]2c3cc4c(cc3[C@@H](NCc3ccccc3)C3COC(=O)[C@@H]32)OCO4)cc(OC)c1O (some centres not stated)
inactive: A498 6.05 µM | HL-60 2.74 µM | TK-10 26 µM | CCRF-CEM 3.13 µM | RXF 393 20.8 µM | HT-29 16.4 µM | A549 1.41 µM | SF-295 4.03 µM | OVCAR-4 38.2 µM | Malme-3M 11.2 µM | SK-MEL-2 23.4 µM | CAKI-1 2.24 µM | U-251 3.71 µM | SW-620 8.57 µM | OVCAR-3 17.8 µM | SNB-75 6.21 µM

CCOc1ccccc1NC(=O)C(=O)CC(=O)C1=C(C)Nc2ccccc2S1
inactive: A498 > 100 µM | HL-60 > 21.1 µM | TK-10 > 100 µM | CCRF-CEM > 100 µM | RXF 393 > 100 µM | HT-29 > 100 µM | A549 > 100 µM | SF-295 > 100 µM | OVCAR-4 > 100 µM | Malme-3M > 100 µM | SK-MEL-2 > 100 µM | CAKI-1 > 100 µM | U-251 > 100 µM | SW-620 > 100 µM | OVCAR-3 > 100 µM | SNB-75 > 100 µM

C#CCN(Cc1ccc2nc(-c3ccccc3)c(Cl)nc2c1)c1ccc(Cl)c(Cl)c1
inactive: A498 > 100 µM | HL-60 > 100 µM | TK-10 > 100 µM | CCRF-CEM > 100 µM | HT-29 > 100 µM | A549 > 100 µM | SF-295 > 100 µM | OVCAR-4 > 100 µM | Malme-3M > 100 µM | SK-MEL-2 > 100 µM | CAKI-1 > 100 µM | U-251 > 100 µM | SW-620 > 100 µM | OVCAR-3 60 µM | SNB-75 > 100 µM

CCOC(=O)c1c2ccc(/C=C/c3ccccn3)ccc-2c(C(=O)OCC)c1N
inactive: A498 24.8 µM | HL-60 89.1 µM | TK-10 > 100 µM | CCRF-CEM > 100 µM | RXF 393 > 100 µM | HT-29 > 100 µM | A549 > 100 µM | SF-295 > 100 µM | OVCAR-4 37.6 µM | Malme-3M > 100 µM | SK-MEL-2 > 100 µM | CAKI-1 > 100 µM | SW-620 > 100 µM | OVCAR-3 > 100 µM | SNB-75 > 100 µM

O=C(O/N=C1/CCC/C1=C\c1ccccc1)c1ccccc1
inactive: A498 > 100 µM | HL-60 37.8 µM | TK-10 > 100 µM | CCRF-CEM 48.8 µM | RXF 393 > 100 µM | HT-29 40.7 µM | A549 > 100 µM | SF-295 > 100 µM | OVCAR-4 > 100 µM | Malme-3M > 100 µM | SK-MEL-2 > 100 µM | CAKI-1 > 100 µM | U-251 > 100 µM | SW-620 > 100 µM | OVCAR-3 > 100 µM | SNB-75 47.5 µM

C=C(Br)N(CC)CC
inactive: A498 > 100 µM | HL-60 > 100 µM | TK-10 > 100 µM | CCRF-CEM > 100 µM | RXF 393 > 100 µM | HT-29 > 100 µM | A549 > 100 µM | SF-295 > 100 µM | OVCAR-4 > 100 µM | Malme-3M > 100 µM | SK-MEL-2 > 100 µM | CAKI-1 > 100 µM | U-251 > 100 µM | SW-620 > 100 µM | OVCAR-3 > 100 µM | SNB-75 > 100 µM

CC/C=C\C/C=C\C/C=C\CCCCCCCC(=O)OCC(O)CO (configuration not stated)
inactive: A498 > 100 µM | HL-60 20.7 µM | TK-10 > 100 µM | CCRF-CEM > 47.8 µM | RXF 393 > 100 µM | HT-29 > 68.5 µM | A549 > 84.9 µM | SF-295 > 83.2 µM | OVCAR-4 > 84.3 µM | Malme-3M > 100 µM | SK-MEL-2 97.9 µM | CAKI-1 38 µM | U-251 > 57.8 µM | SW-620 58.2 µM | OVCAR-3 40.9 µM | SNB-75 > 100 µM

O=[N+]([O-])c1ccc(Sc2c3ccccc3nc3cc(Cl)ccc23)cc1
inactive: A498 > 10 µM | HL-60 40.9 µM | TK-10 > 10 µM | CCRF-CEM 32.9 µM | RXF 393 37.5 µM | HT-29 > 100 µM | SF-295 > 10 µM | OVCAR-4 > 10 µM | Malme-3M > 10 µM | SK-MEL-2 > 10 µM | CAKI-1 > 10 µM | U-251 > 10 µM | SW-620 > 10 µM | OVCAR-3 > 10 µM | SNB-75 27.9 µM

NC(=O)c1cn(C2OC(CO)C(O)C2O)c(=O)[nH]c1=O (configuration not stated)
inactive: A498 > 100 µM | HL-60 > 100 µM | TK-10 > 100 µM | CCRF-CEM > 100 µM | HT-29 > 100 µM | A549 > 100 µM | SF-295 > 100 µM | OVCAR-4 > 100 µM | SK-MEL-2 > 100 µM | CAKI-1 > 100 µM | U-251 > 100 µM | SW-620 > 100 µM | OVCAR-3 > 100 µM | SNB-75 > 100 µM

c1ccc(NC[Si]23OCCN(CCO2)CCO3)cc1
inactive: A498 > 100 µM | TK-10 > 100 µM | CCRF-CEM > 100 µM | RXF 393 > 100 µM | HT-29 > 100 µM | A549 > 100 µM | SF-295 > 100 µM | Malme-3M > 100 µM | SK-MEL-2 > 100 µM | CAKI-1 > 100 µM | U-251 > 100 µM | SW-620 > 100 µM | OVCAR-3 > 100 µM | SNB-75 > 100 µM

CC(C)OC(=O)C1=C(O)c2ccccc2S(=O)(=O)N1
inactive: A498 > 100 µM | TK-10 > 100 µM | CCRF-CEM > 100 µM | HT-29 > 100 µM | A549 > 100 µM | SF-295 > 100 µM | OVCAR-4 > 100 µM | Malme-3M > 100 µM | SK-MEL-2 > 100 µM | CAKI-1 > 100 µM | U-251 > 100 µM | SW-620 > 100 µM | OVCAR-3 > 100 µM | SNB-75 > 100 µM

CC(=O)N1C/C(=C\c2ccccc2)C(=O)/C(=C/c2ccccc2)C1
inactive: A498 16.8 µM | HL-60 1.68 µM | TK-10 18.2 µM | CCRF-CEM 2.82 µM | RXF 393 16.2 µM | HT-29 3.04 µM | A549 23.1 µM | SF-295 13.4 µM | OVCAR-4 17.6 µM | Malme-3M 18.3 µM | SK-MEL-2 24.9 µM | CAKI-1 17.6 µM | U-251 15.6 µM | SW-620 2.67 µM | OVCAR-3 6.43 µM | SNB-75 20 µM

CN(C)C(=S)N=C(Nc1ccccc1)Nc1ccccc1
inactive: A498 > 100 µM | HL-60 > 100 µM | TK-10 > 100 µM | CCRF-CEM > 100 µM | RXF 393 > 100 µM | HT-29 > 100 µM | A549 > 100 µM | SF-295 > 100 µM | OVCAR-4 > 100 µM | Malme-3M > 100 µM | SK-MEL-2 > 100 µM | CAKI-1 > 100 µM | U-251 > 100 µM | SW-620 > 100 µM | OVCAR-3 > 100 µM | SNB-75 91 µM

CC(=O)Oc1c2c(c(OC(C)=O)c3c1n(C(C)=O)c1ccccc1n3C(C)=O)n(C(C)=O)c1ccccc1n2C(C)=O
inactive: A498 18.4 µM | HL-60 2.67 µM | CCRF-CEM 2.5 µM | RXF 393 8.38 µM | HT-29 3.18 µM | A549 6.22 µM | SF-295 8.81 µM | OVCAR-4 16.9 µM | Malme-3M 2.38 µM | SK-MEL-2 5.18 µM | CAKI-1 10.9 µM | U-251 10.9 µM | SW-620 1.94 µM | OVCAR-3 1.92 µM | SNB-75 11.5 µM

CC(C)(Oc1ccc2c(=O)cc(-c3ccc(Cl)cc3)oc2c1)C(=O)Nc1c(Cl)cccc1Cl
inactive: A498 > 100 µM | HL-60 > 100 µM | TK-10 > 100 µM | CCRF-CEM > 100 µM | HT-29 > 100 µM | A549 > 100 µM | SF-295 > 100 µM | Malme-3M > 100 µM | SK-MEL-2 > 100 µM | CAKI-1 > 100 µM | U-251 > 100 µM | SW-620 > 100 µM | OVCAR-3 > 100 µM

Source: ChEMBL document CHEMBL1201862, “PubChem BioAssay data set” (2004)
